Consider 22 compounds from paper PMC11647902, “Design, Synthesis, and Biological Evaluation of [1,2,5]Oxadiazolo[3,4-b]pyridin-7-ol as Mitochondrial Uncouplers for the Treatment of Obesity and Metabolic Dysfunction-Associated Steatohepatitis” (Journal of Medicinal Chemistry, 2024).

A short description of one data set: in vivo. The note with it: male, C57BL/6, mouse, plasma, po, 10 mg/kg.
In the next data set the test system is L6 rat myoblasts. Nature of the data set: OCR Seahorse assay (oxygen consumption rate, mitochondrial uncoupling). The note with it: for EC50 / Emax at 200 µM: Rattus norvegicus; for EC50: L6; for Emax at 200 µM: L6, read-out: % of BAM15 OCR, L6 myoblasts, integrated area under OCR dose curve above baseline relative to BAM15 of same experiment, NA = No Activity, highest tested concentration 200 μM.

The subject of a further data set is GAN mouse model of MASH. Nature of the data set: Gubra-Amylin NASH (GAN) diet mouse model of MASH. Type of data set: in vivo.
Another data set deals with L6 myoblast cells. Nature of the data set: Mitochondrial stress test and self-limiting test (OCR). The settings on record: L6 myoblasts.
Details of data set [1]: method as in PMID 38629387. The settings on record: STEP-1 clinical trials; cited from earlier work.
Setting [2] is: 200 mg kg^–1 in GAN diet, 4 weeks.

Experimental for L6 rat myoblasts: With 7 and 9 derivatives in hand, we screened for mitochondrial uncoupling activity as a function of oxygen consumption rate (OCR). […] OCR was measured using an Agilent Seahorse XF24 or XFe96 Analyzer (Agilent Technologies, Santa Clara, CA). L6 myoblasts were seeded in a Seahorse 24 or 96-well tissue culture plate at a density of 3.5 × 10^4 cells/well. The cells were then allowed to adhere overnight. […] Compounds were injected during the assay, and OCR was measured using 2 min measurement periods. Cells were treated with a single drug concentration per well and measured over a 90 min period. Two wells were used per condition and, where applicable, results from multiple plates were averaged together. The first three measurements after injection for each concentration were averaged to produce a dose curve. […] AUC values were also calculated using the same software.
Experimental for in vivo: The exposure levels in plasma were determined by liquid chromatography/mass spectrometry (LC/MS) and half-life was calculated. […] Samples were processed at UNSW for liquid chromatography tandem mass spectrometry (LC–MS/MS) by protein precipitation into a mixture of acetonitrile/methanol solution (AcN-MeOH, 9:1). Seven μL of plasma was precipitated in 100 μL of AcN-MeOH, followed by centrifugation at 18,000g for 10 min and collection of the supernatant for analysis. […] Chromatographic separation was achieved using an ACUITY UPLC BEH, C18 column (Waters, WT186002350, USA). Mobile phase A consisted of 0.1% v/v formic acid in HLPC grade water, while mobile phase B consisted of 0.1% v/v formic acid in ACN. Electrospray ionization (ESI) was performed in negative mode. […] Pharmacokinetic properties were calculated using PKSolver add-in tool (Excel).

With `Oc1c(Nc2ccc(-c3cccc(F)c3)cc2)cnc2nonc12` [7al, 6-((3′-Fluoro-[1,1′-biphenyl]-4-yl)amino)-[1,2,5]oxadiazolo[3,4-b]pyridin-7-ol], in the data set “in vivo”, the peak level (Cmax at 24 h) was 4 µM and the half-life (commonly the time needed for the level to fall by half in the phase considered) at 24 h is 0.9 ± 0.34 h. In addition, in the data set with L6 rat myoblasts, the EC50 (as a rule, the concentration that produces a half-maximal response) came to 1.2 ± 0.1 µM and the Emax at 200 µM is 36%.
Take `Oc1c(Nc2ccc(-c3ccc(F)cc3)cc2)cnc2nonc12` [7ao, 6-((4′-Fluoro-[1,1′-biphenyl]-4-yl)amino)-[1,2,5]oxadiazolo[3,4-b]pyridin-7-ol]: in “in vivo”, the highest level (Cmax at 24 h) was 6 µM and the half-life at 24 h was 0.9 ± 0.07 h. In the data set on L6 rat myoblasts, the EC50 is 1.7 ± 0.2 µM and the Emax at 200 µM was less than 50%.
For `Oc1c(Nc2ccc(-c3ccc(Cl)cc3)cc2)cnc2nonc12` [7ap, 6-((4′-Chloro-[1,1′-biphenyl]-4-yl)amino)-[1,2,5]oxadiazolo[3,4-b]pyridin-7-ol], in that order: 4 µM, 1.8 ± 0.25 h, 0.9 ± 0.1 µM and less than 50%.
As for `Oc1c(Nc2ccccc2C(F)(F)F)cnc2nonc12` [7q, 6-((2-(Trifluoromethyl)phenyl)amino)-[1,2,5]oxadiazolo[3,4-b]pyridin-7-ol], in the data set with L6 rat myoblasts, it took 34 ± 4 µM to reach a half-maximal effect (EC50) and the Emax at 200 µM was found to be 57%.
In the case of `Oc1c(Nc2cccc(C(F)(F)F)c2)cnc2nonc12` [7r, 6-((3-(Trifluoromethyl)phenyl)amino)-[1,2,5]oxadiazolo[3,4-b]pyridin-7-ol], in the data set with L6 rat myoblasts, the EC50 came out at 22 ± 1.8 µM and the Emax at 200 µM is 48%.
For `Oc1c(Nc2ccc(C(F)(F)F)cc2)cnc2nonc12` [7s, 6-((4-(Trifluoromethyl)phenyl)amino)-[1,2,5]oxadiazolo[3,4-b]pyridin-7-ol], in the data set with L6 rat myoblasts, a half-maximal effect (EC50) was put at 35 ± 1.7 µM and the Emax at 200 µM was 43%.
Take `Oc1c(Nc2cccc(F)c2F)cnc2nonc12` [7t, 6-((2,3-Difluorophenyl)amino)-[1,2,5]oxadiazolo[3,4-b]pyridin-7-ol]: in the data set on L6 rat myoblasts, it took 64 ± 3.3 µM to reach a half-maximal effect (EC50) and the Emax at 200 µM worked out at 60%.
Consider `Oc1c(Nc2ccc(F)cc2F)cnc2nonc12` [7u, 6-((2,4-Difluorophenyl)amino)-[1,2,5]oxadiazolo[3,4-b]pyridin-7-ol], for which, in the data set with L6 rat myoblasts, the EC50 was found to be 40 ± 1.9 µM and the Emax at 200 µM stood at 83%.
With `Oc1c(Nc2cc(F)ccc2F)cnc2nonc12` [7v, 6-((2,5-Difluorophenyl)amino)-[1,2,5]oxadiazolo[3,4-b]pyridin-7-ol], in the data set on L6 rat myoblasts, the EC50 was 64 ± 5.3 µM and the Emax at 200 µM is 69%.
As for `Oc1c(Nc2c(F)cccc2F)cnc2nonc12` [7w, 6-((2,6-Difluorophenyl)amino)-[1,2,5]oxadiazolo[3,4-b]pyridin-7-ol], in the data set with L6 rat myoblasts, the EC50 worked out at 52 ± 8.8 µM and the Emax at 200 µM amounted to 54%.
For `Oc1c(Nc2ccc(F)c(F)c2)cnc2nonc12` [7x, 6-((3,4-Difluorophenyl)amino)-[1,2,5]oxadiazolo[3,4-b]pyridin-7-ol] the same measures were 63 ± 3.7 µM and 55%.
With `Oc1c(Nc2ccc(F)c(F)c2F)cnc2nonc12` [7y, 6-((2,3,4-Trifluorophenyl)amino)-[1,2,5]oxadiazolo[3,4-b]pyridin-7-ol], in the data set with L6 rat myoblasts, the EC50 stood at 44 ± 3.6 µM and the Emax at 200 µM was found to be 68%.
Take `Oc1c(Nc2c(F)c(F)c(F)c(F)c2F)cnc2nonc12` [7z, 6-((Perfluorophenyl)amino)-[1,2,5]oxadiazolo[3,4-b]pyridin-7-ol]: in the data set on L6 rat myoblasts, the EC50 is 18 ± 2.4 µM and the Emax at 200 µM turned out to be 50%.
In the case of `Oc1c(-c2ccccc2F)cnc2nonc12` [9a, 6-(2-Fluorophenyl)-[1,2,5]oxadiazolo[3,4-b]pyridin-7-ol], in the data set on L6 rat myoblasts, a half-maximal effect (EC50) was put at 27 ± 2.8 µM and the Emax at 200 µM came out at 69%.
Regarding `Oc1c(-c2ccccc2Cl)cnc2nonc12` [9b, 6-(2-Chlorophenyl)-[1,2,5]oxadiazolo[3,4-b]pyridin-7-ol], in the data set with L6 rat myoblasts, the EC50 came out at 85 ± 16 µM and the Emax at 200 µM was 49%.
As for `Oc1c(-c2cccc(Cl)c2)cnc2nonc12` [9c, 6-(3-Chlorophenyl)-[1,2,5]oxadiazolo[3,4-b]pyridin-7-ol], in the data set on L6 rat myoblasts, a half-maximal response (EC50) required 25 ± 3.1 µM and the Emax at 200 µM amounted to 61%.
`Oc1c(-c2cccc(C(F)(F)F)c2)cnc2nonc12` [9d, 6-(3-(Trifluoromethyl)phenyl)-[1,2,5]oxadiazolo[3,4-b]pyridin-7-ol]: the “cellular toxicity in OCR assay” value in the data set on L6 rat myoblasts (L6 myoblasts, at higher concentrations) is given as “exhibited cellular toxicity at higher concentrations”. In addition, in the data set on L6 rat myoblasts, the EC50 was found to be 26 ± 4.5 µM and the Emax at 200 µM stood at 59%.
Consider `Oc1c(-c2ccc(Cl)cc2)cnc2nonc12` [9e, 6-(4-Chlorophenyl)-[1,2,5]oxadiazolo[3,4-b]pyridin-7-ol], for which, in the data set with L6 rat myoblasts, the EC50 was determined as 12 ± 0.6 µM and the Emax at 200 µM amounted to 52%.
Take `Oc1c(-c2cccs2)cnc2nonc12` [9g, 6-(Thiophen-2-yl)-[1,2,5]oxadiazolo[3,4-b]pyridin-7-ol]: in the data set with L6 rat myoblasts (L6 myoblasts), the “uncoupling (OCR) activity in words” value is given as “poor activity”. Also, in the data set with L6 rat myoblasts, the response was half-maximal at 40 ± 0.3 µM (EC50) and the Emax at 200 µM came to 36%.
In the case of `Oc1c(-c2ccc(-c3ccc(F)cc3)cc2)cnc2nonc12` [9h, 6-(4′-Fluoro-[1,1′-biphenyl]-4-yl)-[1,2,5]oxadiazolo[3,4-b]pyridin-7-ol], the “uncoupling (OCR) activity in words” value in the data set on L6 rat myoblasts (L6 myoblasts) was “inactive”.
On to `Oc1c(Nc2ccc(-c3cccc(Cl)c3)cc2)cnc2nonc12` [SHO1122147, 6-((3′-Chloro-[1,1′-biphenyl]-4-yl)amino)-[1,2,5]oxadiazolo[3,4-b]pyridin-7-ol], for which the “loss of body weight” value in the data set on GAN mouse model of MASH (200 mg kg^–1 admixed in GAN diet, 4 weeks) turned out to be 15.4%. In the data set with GAN mouse model of MASH (setting [2]), the “fat mass as percent of body weight (EchoMRI)” value is “lowering fat mass”, the “fat-free lean mass as percent of body weight (EchoMRI)” value is “increasing fat-free lean mass”, the liver mass entry was “no significant change” and the liver triglycerides result is on record as “decreased”. The “plasma alanine aminotransferase (ALT)” value in the data set on GAN mouse model of MASH (setting [2]) is “decreased”. Also, the fibrosis stage result with GAN mouse model of MASH (200 mg kg^–1 in GAN diet, 4 weeks, compared to GAN controls) was “No changes”. Besides, the MAFLD activity score result in the data set on GAN mouse model of MASH (200 mg kg^–1 in GAN diet, 4 weeks, primarily due to decreased hepatic steatosis) is recorded as “significant decrease”. Besides, in the data set with GAN mouse model of MASH (200 mg kg^–1 in GAN diet, food intake monitored daily), the caloric intake entry is “no significant changes”. In addition, the body temperature result in the data set on GAN mouse model of MASH (200 mg kg^–1 day^–1) is listed as “without changes in body temperature”. Further, in “in vivo”, the Cmax (in general, the highest concentration seen after dosing) at 24 h amounted to 35 µM and the half-life at 24 h is 2 ± 0.07 h. The “respiration (OCR) in self-limiting test” value in the data set on L6 myoblast cells (SHO1122147 10 μM, BAM15 1.1 μM) was determined as 200%. The “OCR after blockade with oligomycin” value in the data set on L6 myoblast cells (oligomycin 1 μM, then SHO1122147 10 μM or BAM15 1.1 μM at t = 40 min) is on record as “increased OCR”. Further, in the data set with L6 rat myoblasts, it took 3.6 ± 0.1 µM to reach a half-maximal effect (EC50) and the Emax at 200 µM was found to be 55%.
For the compound semaglutide, the “loss of lean mass” value in data set [1] was “up to 40%”.
